Assay results reported in patent US20130323776A1, “CARRIER PEPTIDE FRAGMENT AND USE THEREOF” (Toagosei Co. Ltd., priority 2009, published 2013).
Ends that are not written are not given here. * marks the point of attachment. FITC = O=C1OC2(c3ccc(O)cc3Oc3cc(O)ccc32)c2ccc(NC(=S)*)cc21; Acp = not defined here

What was measured:
[1] = test system: Human neonate foreskin fibroblasts (ATCC Catalogue No. CRL-2097); assay: Evaluation of cell membrane permeability function, confocal laser scanning microscopy of fluorescently labeled peptide; format: cell-based; conditions: 1 μM peptide, 1 or 4 hours culture; for penetration of the cell membrane from outside the cell and transfer into the cytoplasm: methanol fixed
Description: Human neonate foreskin fibroblasts (ATCC Catalogue No. CRL-2097) were used as the eukaryotic cells, and the cell membrane permeability capability of the samples (constructs for transferring a foreign substance) obtained in Example 1 above was investigated.
More specifically, the abovementioned fibroblasts were cultured in a liquid mixture of 90% Eagle MEM culture medium (containing 0.1% nonessential amino acids, 2 mM L-glutamine, 1 mM sodium pyruvate, and 1.5 g/L sodium hydrogen carbonate) and 10% serum (FBS) as the culture medium.
The cultured cells were trypsinized for 1 min at 37° C. with a 0.25% trypsin solution. After the abovementioned treatment, the trypsin was deactivated with FBS-containing medium, and a cell suspension (test sample for foreign substance transfer) was prepared by adjusting the cell concentration to approximately 5×10^4 cells/mL with the culture medium.
Next, 0.5 mL of the abovementioned cell suspension was placed in a designated cell culturing container (culture slide with a surface coating of 0.1% gelatin), and the cells were incubated overnight at 37° C. in a 5% CO2 atmosphere. After incubation the medium was replaced with fresh culture medium, and the 1 mM sample solutions of each of the samples prepared in abovementioned Example 1 were added to a cell culture container so that the final sample concentration (peptide concentration) would be 1 μM. In this case 0.5 μL of sample solution was added to the container. Then the samples were incubated at 37° C. for either 1 or 4 hours in a 5% CO2 atmosphere.
The cells after 1 hour of culture and the cells after 4 hours of culture were each rinsed in PBS and fixed with methanol (on ice for 10 min).
Next the methanol-fixed samples (cells) were mounted using Prolong® Gold Antifade Reagent (Invitrogen) that contains the nuclear stain DAPI (4′,6-diamidino-2-phenylindole). Then the localization within the cells of the peptide bonded to the fluorescent dye (i.e., fluorescently labeled peptide) in each test sample (i.e., the abovementioned mounted test samples after methanol fixation) was investigated using a confocal scanning laser microscope. Part of the results are presented herein as micrographs.

[2] = test system: human iPS cells (cell line 201B2-082008KU); assay: Evaluation of cell membrane permeability function in iPS cells, confocal laser scanning microscopy of fluorescently labeled peptide; format: cell-based; conditions: 1 μM peptide, 1 or 4 hours culture; for penetration of the cell membrane from outside the cell and transfer into the cytoplasm of iPS cells: human iPS cells on MEF feeder cells, methanol fixed; for foreign substance transfer efficiency toward stem cells such as iPS cells: human iPS cells
Source text: The target cells for transferring the foreign substance were changed from human neonate foreskin fibroblasts to human iPS cells (human induced pluripotent stem cells), and the cell membrane permeability capability of the two samples (constructs for transferring a foreign substance) obtained in Example 1 above was investigated. It should also be noted that the iPS cells (cell line 201B2-082008KU) and the mouse embryonic fibroblast feeder cells (cell line SNL 76/7, hereinafter “MEF”) used in this example were provided by the Yamanaka Research Laboratory of the Institute for Frontier Medical Sciences, Kyoto University (professor Shinya Yamanaka).
First the obtained MEF were inactivated by a mitomycin C treatment (3 hours) and then trypsinised in a 0.25% trypsin solution containing 1 mM EDTA. After the above treatment, the trypsin was deactivated with culture medium containing FBS, and the MEF were adjusted to a suitable cell density using D-MEM medium (Dulbecco's Modified Eagle Medium: Gibco) containing MEF culture medium (7% FBS: Gibco), 2 mM L-glutamine (Gibco), 50 units/mL penicillin, and 50 μg/mL streptomycin (Gibco), and the abovementioned MEF were seeded onto a culture container (in the form of a culture slide or plate) with a surface coating of 0.1% gelatin. In this case, the MEF were seeded so that the cell density would be approximately 1.25×10^5 cells/mL. Next, the abovementioned cell culture containers were incubated overnight at 37° C. in a 5% CO2 atmosphere.
Thereafter, the feeder cells were prepared by removing the MEF culture medium and rinsing with PBS.
Separately, CTK solution (0.25% trypsin solution containing 0.1 mg/mL collagenase IV (Gibco), 1 mM calcium chloride, and 20% KSR (KnockOut® Serum Replacement)) was added to the obtained iPS cell line, the MEF were peeled therefrom, and the cells were rinsed with PBS.
Next, 1 mL hESC culture medium (i.e., human ES cell medium, in this case, DMEM/F12 culture medium (Gibco) containing 20% KSR (Gibco), 2 mM L-glutamine (Gibco), 0.1% nonessential amino acids (Gibco), 0.1 mM 2-mercaptoethanol (Gibco), 50 units/mL penicillin, and 50 μg/mL streptomycin (Invitrogen, 4 ng/mL bFGF (basic fibroblast growth factor)) was added, the iPS cells were peeled off using a cell scraper, and the colony was broken apart by gentle pipetting.
A suspension of iPS cells obtained in this manner was seeded onto the feeder cells in the culture containers that had been prepared as described above. Then, the above-mentioned hESC medium was added, and the cell culture containers were incubated overnight at 37° C. in a 5% CO2 atmosphere.
After incubation overnight, the culture medium was removed from the culture containers, and the abovementioned hESC medium to which one of the 1 mM sample solutions prepared in abovementioned. Example 1 had been added to make a final sample concentration (pipetted concentration) of 1 μM was added to the culture containers. Then the samples were incubated at 37° C. for either 1 or 4 hours in a 5% CO2 atmosphere.
The cells after 1 hour of culture and cells after 4 hours of culture were each rinsed in PBS (phosphate buffered saline) and fixed with methanol (on ice for 10 min).
Next, the same treatment as in Example 2 was performed, and the localization within the iPS cells of the peptide that was bonded to the fluorescent dye (i.e., fluorescently labeled) was investigated using a confocal scanning laser microscope. Part of the results are presented herein as micrographs.

Substance: (FAM)-MAKSIRSKHRRQMRMMKRE ({FAM}-MAKSIRSKHRRQMRMMKRE; not fully specified (C-terminus); printed as (FAM)-MAKSIRSKHRRQMRMMKRE) [Sample No. 2]
- penetration of the cell membrane from outside the cell and transfer into the cytoplasm [1]: transferred into the cytoplasm

Substance: (FAM)-MQRKPTIRRKNLRLRRK ({FAM}-MQRKPTIRRKNLRLRRK; not fully specified (C-terminus); printed as (FAM)-MQRKPTIRRKNLRLRRK) [Sample No. 6]
- penetration of the cell membrane from outside the cell and transfer into the cytoplasm of iPS cells [2]: transferred into the cytoplasm of iPS cells
- foreign substance transfer efficiency toward stem cells such as iPS cells [2]: extremely high
- foreign substance transfer efficiency toward somatic cells such as fibroblasts [1]: extremely high
- penetration of the cell membrane from outside the cell and transfer into the cytoplasm [1]: transferred into the cytoplasm

Substance: (FITC-Acp)-GRCRRLANFGPRKRRRRRR ({FITC-Acp}-GRCRRLANFGPRKRRRRRR; not fully specified (C-terminus); printed as (FITC-Acp)-GRCRRLANFGPRKRRRRRR; reading uncertain) [Sample No. 4]
- penetration of the cell membrane from outside the cell and transfer into the cytoplasm of iPS cells [2]: transferred into the cytoplasm of iPS cells
- foreign substance transfer efficiency toward stem cells such as iPS cells [2]: extremely high
- foreign substance transfer efficiency toward somatic cells such as fibroblasts [1]: extremely high
- penetration of the cell membrane from outside the cell and transfer into the cytoplasm [1]: transferred into the cytoplasm

Substance: (FITC-Acp)-IMRRRGL ({FITC-Acp}-IMRRRGL; not fully specified (C-terminus); printed as (FITC-Acp)-IMRRRGL; reading uncertain) [Sample No. 7]
- penetration of the cell membrane from outside the cell and transfer into the cytoplasm of iPS cells [2]: almost no passage through the cell membrane
- penetration of the cell membrane from outside the cell and transfer into the cytoplasm [1]: almost no passage through the cell membrane

Substance: (FITC-Acp)-KKLKKRNK ({FITC-Acp}-KKLKKRNK; not fully specified (C-terminus); printed as (FITC-Acp)-KKLKKRNK; reading uncertain) [Sample No. 8]
- penetration of the cell membrane from outside the cell and transfer into the cytoplasm of iPS cells [2]: almost no passage through the cell membrane
- penetration of the cell membrane from outside the cell and transfer into the cytoplasm [1]: almost no passage through the cell membrane

Substance: (FITC-Acp)-MARRRRHRGPRRPRPP ({FITC-Acp}-MARRRRHRGPRRPRPP; reading uncertain; also: printed as (FITC-Acp)-MARRRRHRGPRRPRPP) [Sample No. 3]
- penetration of the cell membrane from outside the cell and transfer into the cytoplasm [1]: transferred into the cytoplasm

Substance: (FITC-Acp)-RRRKRNRDARRRRRKQ ({FITC-Acp}-RRRKRNRDARRRRRKQ; reading uncertain; also: printed as (FITC-Acp)-RRRKRNRDARRRRRKQ) [Sample No. 5]
- penetration of the cell membrane from outside the cell and transfer into the cytoplasm [1]: transferred into the cytoplasm

Substance: (FITC-Acp)-RSRKYTSWYVALKRTLKERCLQVVRSLVK ({FITC-Acp}-RSRKYTSWYVALKRTLKERCLQVVRSLVK; not fully specified (C-terminus); printed as (FITC-Acp)-RSRKYTSWYVALKRTLKERCLQVVRSLVK; reading uncertain) [Sample No. 14]
- penetration of the cell membrane from outside the cell and transfer into the cytoplasm of iPS cells [2]: transferred into the cytoplasm of iPS cells
- foreign substance transfer efficiency toward somatic cells such as fibroblasts [1]: extremely high
- penetration of the cell membrane from outside the cell and transfer into the cytoplasm [1]: transferred into the cytoplasm
